In patent US20240174647A1 (NEURON23, INC., priority 2022, published 2024):
pIC50: −log10 of the molar value.

Target: wt human LRRK2, catalytic site (Homo sapiens (Human), UniProt Q5S007)
Test: TR-FRET LanthaScreen Tb Kinase Activity Assay (LRRK2 kinase inhibition)
Type: biochemical
Conditions: 2 nM wt human LRRK2, 400 nM fluorescein-ERM (LRRKtide) peptide, 38 μM ATP, 120 minutes at room temperature
Method in brief: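 LanthaScreen TR-FRET with 2 nM wt human LRRK2 catalytic site, 400 nM fluorescein-ERM (LRRKtide) peptide and 38 µM ATP in Kinase Buffer A; 120 min at room temperature. Phosphorylation detected with EDTA and Tb-anti-pLRRKtide after 60 min; IC50 from emission ratios.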

Chain of wt human LRRK2, catalytic site (Q5S007 1879-2138): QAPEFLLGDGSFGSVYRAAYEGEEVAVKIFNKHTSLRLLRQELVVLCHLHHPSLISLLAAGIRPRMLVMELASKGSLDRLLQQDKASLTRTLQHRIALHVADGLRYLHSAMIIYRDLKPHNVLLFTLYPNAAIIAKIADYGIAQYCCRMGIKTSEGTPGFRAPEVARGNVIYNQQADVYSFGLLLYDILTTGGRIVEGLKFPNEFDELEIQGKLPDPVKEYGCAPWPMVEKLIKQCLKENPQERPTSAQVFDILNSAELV

Row | SMILES | pIC50
1 | Cc1ccc(Nc2ncc(C(F)(F)F)c(NC3CC3)n2)c2cnn(CCS(C)(=O)=O)c12 [Example 174, N4-cyclopropyl-N2-(7-methyl-1-(2-(methylsulfonyl)ethyl)-1H-indazol-4-yl)-5-(trifluoromethyl)pyrimidine-2,4-diamine] | > 7.30
2 | CC(C)(O)Cn1ncc2c(Nc3ncc(C(F)F)c(NC4CC4)n3)ccc(F)c21 [Example 175, 1-[4-[[4-(cyclopropylamino)-5-(difluoromethyl)pyrimidin-2-yl]amino]-7-fluoro-indazol-1-yl]-2-methyl-propan-2-ol] | > 7.30
3 | CCNc1nc(Nc2cccc3c2cnn3CC(C)(C)O)nc2[nH]cc(Cl)c12 [Example 176, 1-[4-[[5-chloro-4-(ethylamino)-7H-pyrrolo[2,3-d]pyrimidin-2-yl]amino]indazol-1-yl]-2-methyl-propan-2-ol] | > 7.30
4 | CS(=O)(=O)CCn1ncc2c(Nc3ncc(C(F)(F)F)c(NC4CC4)n3)ccc(F)c21 [Example 177, N^4-cyclopropyl-N^2-[7-fluoro-1-(2-methylsulfonylethyl)indazol-4-yl]-5-(trifluoromethyl)pyrimidine-2,4-diamine] | > 7.30
5 | CNc1nc(Nc2ccc3c4c2cnn4CCO3)ncc1C(F)(F)F [Example 178, N^4-methyl-N^2-(9-oxa-1,2-diazatricyclo[6.3.1.04,12]dodeca-2,4,6,8(12)-tetraen-5-yl)-5-(trifluoromethyl)pyrimidine-2,4-diamine] | > 7.30
6 | FC(F)(F)c1cnc(Nc2ccc3c4c2cnn4CCO3)nc1NC1CC1 [Example 179, N^4-cyclopropyl-N^2-(2,3-dihydro-[1,4]oxazino[2,3,4-hi]indazol-7-yl)-5-(trifluoromethyl)pyrimidine-2,4-diamine] | > 7.30
7 | CC(C)Nc1nc(Nc2ccc3c4c2cnn4CCO3)ncc1C(F)(F)F [Example 180, N^4-isopropyl-N^2-(9-oxa-1,2-diazatricyclo[6.3.1.04,12]dodeca-2,4,6,8(12)-tetraen-5-yl)-5-(trifluoromethyl)pyrimidine-2,4-diamine] | > 7.30
8 | CCNc1nc(Nc2ccc(F)c3c2cnn3CC(C)(C)O)nc2[nH]nc(Cl)c12 [Example 181, 1-(4-((3-chloro-4-(ethylamino)-1H-pyrazolo[3,4-d]pyrimidin-6-yl)amino)-7-fluoro-1H-indazol-1-yl)-2-methylpropan-2-ol] | > 7.30
9 | Cc1n[nH]c2nc(Nc3cccc4c3cnn4CCS(C)(=O)=O)nc(NC3CC3)c12 [Example 182, N^4-cyclopropyl-3-methyl-N^6-[1-(2-methylsulfonylethyl)indazol-4-yl]-1H-pyrazolo[3,4-d]pyrimidine-4,6-diamine] | > 7.30
10 | CNc1nc(Nc2cccc3c2cnn3CC(C)(C)O)nc2[nH]nc(Cl)c12 [Example 183, 1-[4-[[3-chloro-4-(methylamino)-1H-pyrazolo [3,4-d]pyrimidin-6-yl]amino]indazol-1-yl]-2-methyl-propan-2-ol] | > 7.30
11 | CNc1nc(Nc2cccc3c2cnn3CC(C)(C)O)nc2[nH]cnc12 [Example 184, 2-methyl-1-[4-[[6-(methylamino)-9H-purin-2-yl]amino]indazol-1-yl]propan-2-ol] | > 7.30
12 | CCNc1nc(Nc2cccc3c2cnn3CC(F)F)nc2[nH]nc(C)c12 [Example 185, N^6-(1-(2,2-difluoroethyl)-1H-indazol-4-yl)-N^4-ethyl-3-methyl-1H-pyrazolo[3,4-d]pyrimidine-4,6-diamine] | > 7.30
13 | CCNc1nc(Nc2cccc3c2cnn3CCS(C)(=O)=O)ncc1C(F)(F)F [Example 186, N^4-ethyl-N^2-[1-(2-methylsulfonylethyl)indazol-4-yl]-5-(trifluoromethyl) pyrimidine-2,4-diamine] | > 7.30
14 | CS(=O)(=O)CCn1ncc2c(Nc3ncc(C(F)(F)F)c(NCC4CC4)n3)cccc21 [Example 187, N^4-(cyclopropylmethyl)-N^2-(1-(2-(methylsulfonyl)ethyl)-1H-indazol-4-yl)-5-(trifluoromethyl)pyrimidine-2,4-diamine] | > 7.30
15 | CNc1nc(Nc2cccc3c2cnn3CCS(C)(=O)=O)ncc1C(F)(F)F [Example 188, N^4-methyl-N^2-[1-(2-methylsulfonylethyl)indazol-4-yl]-5-(trifluoromethyl) pyrimidine-2,4-diamine] | > 7.30
16 | CC(C)(C#N)n1ncc2c(Nc3ncc(C(F)(F)F)c(NC4CC4)n3)ccnc21 [Example 189, 2-(4-((4-(cyclopropylamino)-5-(trifluoromethyl)pyrimidin-2-yl)amino)-1H-pyrazolo[3,4-b]pyridin-yl)-2-methylpropanenitrile] | > 7.30

Row | SMILES | pIC50
17 | FC(F)(F)c1cnc(Nc2cccc3c2cnn3C2CC2)nc1NC1CC1 [Example 190, N^4-cyclopropyl-N^2-(1-cyclopropyl-1H-indazol-4-yl)-5-(trifluoromethyl) pyrimidine-2,4-diamine] | > 7.30
18 | CC1(Nc2nc(Nc3cccc4c3cnn4CCS(C)(=O)=O)ncc2C(F)(F)F)CC1 [Example 191, N^4-(1-methylcyclopropyl)-N^2-(1-(2-(methylsulfonyl)ethyl)-1H-indazol-4-yl)-5-(trifluoromethyl)pyrimidine-2,4-diamine] | > 7.30
19 | CS(=O)(=O)CCn1ncc2c(Nc3ncc(C(F)F)c(NC4CC4)n3)cccc21 [Example 192, N^4-cyclopropyl-5-(difluoromethyl)-N^2-[1-(2-methylsulfonylethyl)indazol-4-yl]pyrimidine-2,4-diamine] | > 7.30
20 | FC(F)(F)c1cnc(Nc2cccc3c2cnn3CCN2CCOCC2)nc1NC1CC1 [Example 193, N^4-cyclopropyl-N^2-(1-(2-morpholinoethyl)-1H-indazol-4-yl)-5-(trifluoromethyl)pyrimidine-2,4-diamine] | > 7.30
21 | CC(C)S(=O)(=O)CCn1ncc2c(Nc3ncc(C(F)(F)F)c(NC4CC4)n3)cccc21 [Example 194, N4-cyclopropyl-N^2-(1-(2-(isopropylsulfonyl)ethyl)-1H-indazol-4-yl)-5-(trifluoromethyl)pyrimidine-2,4-diamine] | > 7.30
22 | CC(C)(CS(C)(=O)=O)n1ncc2c(Nc3ncc(C(F)(F)F)c(NC4CC4)n3)cccc21 [Example 195, N^4-cyclopropyl-N^2-(1-(2-methyl-1-(methylsulfonyl)propan-2-yl)-1H-indazol-4-yl)-5-(trifluoromethyl)pyrimidine-2,4-diamine] | > 7.30
23 | CC(C)(C)n1ncc2c(Nc3ncc(C(F)(F)F)c(NC4CC4)n3)cccc21 [Example 196, N^2-(1-tert-butylindazol-4-yl)-N^4-cyclopropyl-5-(trifluoromethyl)pyrimidine-2,4-diamine] | > 7.30
24 | FC(F)(F)c1cnc(Nc2cccc3c2cnn3CC2COC2)nc1NC1CC1 [Example 197, N^4-cyclopropyl-N^2-(1-(oxetan-3-ylmethyl)-1H-indazol-4-yl)-5-(trifluoromethyl) pyrimidine-2,4-diamine] | 6.70 to 7.30
25 | CS(=O)(=O)CCn1ncc2c(Nc3ncc(C(F)(F)F)c(N[C@H]4C[C@H]4F)n3)cccc21 [Example 198, N^4-((1S,2R)-2-fluorocyclopropyl)-N^2-(1-(2-(methylsulfonyl)ethyl)-1H-indazol-4-yl)-5-(trifluoromethyl)pyrimidine-2,4-diamine] | > 7.30
26 | CS(=O)(=O)CCn1ncc2c(Nc3ncc(C(F)(F)F)c(N[C@H]4C[C@@H]4F)n3)cccc21 [Example 199, N^4-((1S,2S)-2-fluorocyclopropyl)-N^2-(1-(2-(methylsulfonyl)ethyl)-1H-indazol-4-yl)-5-(trifluoromethyl)pyrimidine-2,4-diamine] | > 7.30
27 | CC(C)(C#N)Cn1ncc2c(Nc3ncc(C(F)(F)F)c(NC4CC4)n3)cccc21 [Example 200, 3-[4-[[4-(cyclopropylamino)-5-(trifluoromethyl)pyrimidin-2-yl]amino]indazol-1-yl]-2,2-dimethyl-propanenitrile] | > 7.30
28 | CC(C)(O)Cn1ncc2c(Nc3ncc(C(F)(F)F)c(NC4CC4)n3)ccnc21 [Example 201, 1-(4-((4-(cyclopropylamino)-5-(trifluoromethyl)pyrimidin-2-yl)amino)-1H-pyrazolo[3,4-b]pyridin-1-yl)-2-methylpropan-2-ol] | > 7.30
29 | CNc1nc(Nc2cccc3c2cnn3C(C)(C)C#N)nc2[nH]cnc12 [Example 202, 2-methyl-2-[4-[[6-(methylamino)-9H-purin-2-yl]amino]indazol-1-yl]propanenitrile] | > 7.30
30 | CS(=O)(=O)CCn1ncc2c(Nc3nc(NC4CC4)c4c(Cl)c[nH]c4n3)cccc21 [Example 203, 5-chloro-N^4-cyclopropyl-N^2-(1-(2-(methylsulfonyl)ethyl)-1H-indazol-4-yl)-7H-pyrrolo[2,3-d]pyrimidine-2,4-diamine] | > 7.30
31 | Cc1n[nH]c2nc(Nc3cccc4c3cnn4CC(C)(C)O)nc(NC3CC3)c12 [Example 204, 1-[4-[[4-(cyclopropylamino)-3-methyl-1H-pyrazolo[3,4-d]pyrimidin-6-yl]amino]indazol-1-yl]-2-methyl-propan-2-ol] | > 7.30
32 | CCNc1nc(Nc2ccc(F)c3c2cnn3CC(C)(C)O)nc2[nH]nc(C)c12 [Example 205, 1-[4-[[4-(ethylamino)-3-methyl-1H-pyrazolo[3,4-d]pyrimidin-6-yl]amino]-7-fluoro-indazol-1-yl]-2-methyl-propan-2-ol] | > 7.30
